Measured values taken from ChEMBL document CHEMBL1201862, “PubChem BioAssay data set” (2004).
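All cell lines were grown in 96-well plates and treated with compound for 48 hours. The concentration for 50% growth inhibition is given as GI50.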 Calls of active or inactive are those of the source. Cut-off read from the data, not from the text of the source: active = GI50 up to about 1.1 µM and inactive = higher.

How the values were obtained:
Test in all cases: NCI-60 cell line screen, 48 h
ACHN = system: ACHN
CAKI-1 = system: CAKI-1
DMS-273 = system: DMS-273
HCC 2998 = system: HCC 2998
HOP-62 = system: HOP-62
M14 = system: M14
OVCAR-3 = system: OVCAR-3
OVCAR-4 = system: OVCAR-4
SF-268 = system: SF-268
SF-539 = system: SF-539
SNB-19 = system: SNB-19
SR = system: SR
UO-31 = system: UO-31
RPMI-8226 = system: RPMI-8226
SK-MEL-28 = system: SK-MEL-28
SK-OV-3 = system: SK-OV-3
MCF7 = system: MCF7
NCI/ADR-RES = system: NCI/ADR-RES
PC-3 = system: PC-3

Measured: GI50

CCCCn1c(-c2ccccc2)cs/c1=N\N=C1C=C(C(C)(C)C)C(=O)C(C(C)(C)C)=C1
inactive: ACHN > 100 µM | CAKI-1 > 100 µM | DMS-273 > 100 µM | HCC 2998 > 100 µM | HOP-62 > 100 µM | M14 > 100 µM | OVCAR-3 > 100 µM | OVCAR-4 > 100 µM | SF-268 > 100 µM | SF-539 > 100 µM | SNB-19 > 100 µM | SR > 100 µM | UO-31 > 100 µM

O=c1[nH]c2cccccc-2c1-c1nc2ccccc2[nH]1
inactive: ACHN 14.1 µM | CAKI-1 20.4 µM | DMS-273 15.5 µM | HCC 2998 38.7 µM | HOP-62 39.8 µM | M14 44.3 µM | OVCAR-3 > 10 µM | OVCAR-4 20.6 µM | RPMI-8226 28.5 µM | SF-268 14.9 µM | SF-539 22.4 µM | SK-MEL-28 20.3 µM | SK-OV-3 20.1 µM | SNB-19 21.2 µM | SR 34.2 µM | UO-31 31.1 µM

COc1ccc(C2S/C(=C\c3cc(OC)c(OC)c(OC)c3)C(=O)N2NC(=O)Cc2ccccc2)cc1 (centres undefined)
inactive: ACHN > 100 µM | CAKI-1 > 100 µM | DMS-273 > 100 µM | HOP-62 > 100 µM | M14 > 100 µM | OVCAR-4 > 100 µM | RPMI-8226 > 100 µM | SF-268 > 100 µM | SF-539 > 100 µM | SK-MEL-28 > 100 µM | SK-OV-3 > 100 µM | SR > 100 µM | UO-31 48 µM

OCCN(CCO)c1cccc(N(CCO)CCO)n1
inactive: ACHN > 100 µM | CAKI-1 > 100 µM | DMS-273 > 100 µM | HCC 2998 > 10 µM | HOP-62 > 100 µM | M14 > 100 µM | OVCAR-3 > 100 µM | OVCAR-4 > 100 µM | RPMI-8226 > 100 µM | SF-268 > 100 µM | SK-MEL-28 > 100 µM | SK-OV-3 > 100 µM | SNB-19 > 100 µM | SR > 100 µM | UO-31 > 100 µM

CC(C)(C)OC(=O)N1C2CCCC23O[C@@H]1c1cc2c(cc1C3=O)OCO2 (some centres undefined)
inactive: ACHN 54.1 µM | CAKI-1 9.57 µM | DMS-273 6.27 µM | HOP-62 23.6 µM | M14 12.3 µM | OVCAR-3 8.81 µM | OVCAR-4 > 100 µM | SF-268 41.8 µM | SF-539 19.5 µM | SK-MEL-28 67.3 µM | SK-OV-3 27.3 µM | SNB-19 39.2 µM | SR 32.1 µM | UO-31 39.6 µM

Cc1ccc(NC(=O)CCC(=O)C2CC(=O)CC/C2=N\NC(=O)c2cc3ccccc3cc2O)cc1C (centres undefined)
inactive: ACHN 18.9 µM | CAKI-1 19 µM | DMS-273 13.2 µM | HCC 2998 18.7 µM | HOP-62 43.4 µM | M14 25.8 µM | OVCAR-3 14.8 µM | OVCAR-4 16.4 µM | RPMI-8226 25 µM | SF-268 17.3 µM | SF-539 30.1 µM | SK-MEL-28 65 µM | SK-OV-3 67.9 µM | SNB-19 40.7 µM | SR 22.1 µM | UO-31 4.13 µM

CCC1(OC(=O)CN)C(=O)OCc2c1cc1n(c2=O)Cc2cc3ccccc3nc2-1 (centres undefined)
active: ACHN 0.01 µM | CAKI-1 0.01 µM | DMS-273 0.00471 µM | HCC 2998 0.0664 µM | HOP-62 0.01 µM | M14 0.01 µM | MCF7 0.01 µM | NCI/ADR-RES 0.0118 µM | OVCAR-3 0.0944 µM | OVCAR-4 0.12 µM | PC-3 0.0661 µM | RPMI-8226 < 0.0132 µM | SF-268 0.01 µM | SF-539 0.01 µM | SK-MEL-28 0.101 µM | SK-OV-3 0.0297 µM | SNB-19 0.01 µM | SR 0.01 µM | UO-31 0.0114 µM

CCOC(=O)c1cc2c(cn1)[nH]c1cccc(N)c12
inactive: ACHN > 100 µM | CAKI-1 > 100 µM | DMS-273 > 100 µM | HCC 2998 > 100 µM | HOP-62 > 100 µM | M14 > 100 µM | OVCAR-3 > 100 µM | OVCAR-4 > 100 µM | SF-268 > 100 µM | SF-539 > 100 µM | SK-MEL-28 > 100 µM | SNB-19 > 100 µM | SR > 100 µM | UO-31 > 100 µM

Nc1ccn(CCOC(c2ccccc2)P(=O)(O)O)c(=O)n1 (centres undefined)
inactive: ACHN > 100 µM | CAKI-1 > 100 µM | DMS-273 > 100 µM | HCC 2998 > 100 µM | OVCAR-3 > 100 µM | SF-268 > 100 µM | SF-539 > 100 µM | SK-MEL-28 > 100 µM | SK-OV-3 > 100 µM | SNB-19 > 100 µM | SR > 100 µM | UO-31 > 100 µM

NC(=O)c1csc(C2OC(COP(=O)(O)CP(=O)(O)OCC3OC(n4cnc5c(N)ncnc54)C(O)C3O)C(O)C2O)n1 (centres undefined)
inactive: ACHN > 100 µM | CAKI-1 > 100 µM | DMS-273 85.5 µM | HCC 2998 > 100 µM | HOP-62 > 100 µM | M14 > 100 µM | OVCAR-3 > 100 µM | OVCAR-4 > 100 µM | RPMI-8226 > 100 µM | SF-268 > 100 µM | SF-539 > 100 µM | SK-MEL-28 > 100 µM | SK-OV-3 > 100 µM | SNB-19 > 100 µM | UO-31 > 100 µM

CC1(C)N=C(Oc2ccccc2)n2nccc2N1
inactive: ACHN > 100 µM | CAKI-1 > 100 µM | DMS-273 66.7 µM | HCC 2998 > 100 µM | HOP-62 > 100 µM | M14 73.1 µM | OVCAR-3 > 100 µM | OVCAR-4 > 100 µM | RPMI-8226 > 100 µM | SF-268 > 100 µM | SF-539 > 100 µM | SK-MEL-28 > 100 µM | SK-OV-3 > 100 µM | SNB-19 > 100 µM | SR 61.4 µM | UO-31 > 100 µM

CCCCCCCCCCCCCCCC[N+](C)(C)Cc1ccc(C[N+](C)(C)CCCCCCCCCCCCCCCC)cc1
inactive: ACHN 3.71 µM | CAKI-1 10.1 µM | DMS-273 1.98 µM | HCC 2998 3.72 µM | HOP-62 4.76 µM | M14 2.89 µM | OVCAR-3 2.54 µM | OVCAR-4 3.23 µM | RPMI-8226 2.63 µM | SF-268 2.38 µM | SF-539 2.02 µM | SK-MEL-28 2.3 µM | SK-OV-3 2.62 µM | SNB-19 2.52 µM | SR 2.39 µM | UO-31 25.8 µM

CCn1c(=O)nc2n(-c3ccccc3)c3ccccc3nc-2c1=O
inactive: ACHN 4.21 µM | CAKI-1 12.5 µM | DMS-273 12.7 µM | HCC 2998 21 µM | HOP-62 31.7 µM | M14 13.9 µM | OVCAR-3 3.96 µM | OVCAR-4 12.6 µM | RPMI-8226 21.8 µM | SF-268 17.3 µM | SF-539 14.2 µM | SK-MEL-28 32.8 µM | SK-OV-3 > 100 µM | SNB-19 23 µM | UO-31 35.7 µM
